The Kinase Knowledgebase extract (Sharma et al. 2016)

Target: PIK3CA (human) (UniProt P42336)
Assay: Inhibition of PIK3CA Kinase Activity

Sequence of PIK3CA (human) (P42336 whole entry, looked up): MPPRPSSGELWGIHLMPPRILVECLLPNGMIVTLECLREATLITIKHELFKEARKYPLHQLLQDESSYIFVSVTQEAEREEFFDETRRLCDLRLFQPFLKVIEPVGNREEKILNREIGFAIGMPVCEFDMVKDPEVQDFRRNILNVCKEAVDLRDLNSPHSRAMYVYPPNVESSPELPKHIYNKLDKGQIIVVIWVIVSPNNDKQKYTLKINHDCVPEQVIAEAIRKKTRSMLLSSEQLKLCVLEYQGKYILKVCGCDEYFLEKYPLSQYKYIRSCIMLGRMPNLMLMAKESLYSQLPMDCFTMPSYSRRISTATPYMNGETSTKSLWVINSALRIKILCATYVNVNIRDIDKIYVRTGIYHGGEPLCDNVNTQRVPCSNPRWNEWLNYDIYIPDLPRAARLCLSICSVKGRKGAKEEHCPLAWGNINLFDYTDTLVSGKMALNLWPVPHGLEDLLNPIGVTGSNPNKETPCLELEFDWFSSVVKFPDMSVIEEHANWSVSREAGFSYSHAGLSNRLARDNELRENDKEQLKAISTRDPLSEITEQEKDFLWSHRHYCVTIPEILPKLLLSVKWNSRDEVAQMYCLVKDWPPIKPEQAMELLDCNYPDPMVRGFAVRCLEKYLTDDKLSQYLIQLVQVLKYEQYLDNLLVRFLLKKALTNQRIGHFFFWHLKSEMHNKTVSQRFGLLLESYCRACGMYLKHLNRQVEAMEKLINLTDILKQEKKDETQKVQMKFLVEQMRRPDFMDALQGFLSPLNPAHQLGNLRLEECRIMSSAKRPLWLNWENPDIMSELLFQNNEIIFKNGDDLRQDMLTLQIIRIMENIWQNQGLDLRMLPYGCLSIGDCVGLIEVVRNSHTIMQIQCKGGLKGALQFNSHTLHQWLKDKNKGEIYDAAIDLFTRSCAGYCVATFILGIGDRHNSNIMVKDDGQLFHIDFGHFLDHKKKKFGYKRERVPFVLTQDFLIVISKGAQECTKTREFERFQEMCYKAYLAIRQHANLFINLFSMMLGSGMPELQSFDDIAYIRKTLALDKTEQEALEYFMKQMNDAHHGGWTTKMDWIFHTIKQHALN

`COCCc1c(C)nc(CN(C)C)nc1N1CCOc2ccc(-c3cnc4sc(N)nc4c3)cc2C1` and `C=CCc1c(C)nc(CN(C)C)nc1N1CCOc2ccc(-c3cnc4sc(N)nc4c3)cc2C1` cannot be ordered by IC50: 10 to 50 nM for the first, at most 10 nM for the second.

First: COc1ccc2c(N3CCOc4ccc(-c5cccc(C(=O)O)c5)cc4C3)nc(C)nc2c1
Second: CNC(=O)Nc1ccc(-c2ccc3c(c2)CN(c2nc(C)nc4cc(OC)ccc24)CCO3)cc1
The IC50 of the first is higher: 250 to 1000 nM for the first, 50 to 250 nM for the second. The second is the more potent here.

`CC1(C)CCc2ncnc(N3CCOc4ccc(-c5cnc6nc(N)[nH]c6c5)cc4C3)c2C1` and `CCNc1nc2ncc(-c3ccc4c(c3)CN(c3ncnc5c3CC(C)(C)CC5)CCO4)cc2[nH]1` cannot be ordered by IC50: at most 10 nM for the first, at most 10 nM for the second.

Compared with `Cc1nc2c(C)cc(-c3ccc4c(c3)CN(c3ncnc5cccnc35)CCO4)cc2[nH]1`, `Cc1ccc2c(N3CCOc4ccc(-c5ccc6nc(C)[nH]c6c5)cc4C3)ncnc2c1` is lower in IC50: 50 to 250 nM for the first, 10 to 50 nM for the second.

`Cc1nc2ncc(-c3ccc4c(c3)CN(c3nc(CN5CCOCC5)nc5c3CC(C)(C)CC5)CCO4)cc2[nH]1` and `Cc1nc2ncc(-c3ccc4c(c3)CN(c3nc(CNC5CCCC5)nc5c3CC(C)(C)CC5)CCO4)cc2[nH]1` fall in the same range of IC50: 10 to 50 nM for the first, 10 to 50 nM for the second.

First: Cc1nc2ccc(-c3ccc4c(c3)CN(c3ncnc5ccc(OCC#N)cc35)CCO4)cc2[nH]1
Second: Cc1nc2ccc(-c3ccc4c(c3)CN(c3ncnc5cc(F)c(F)cc35)CCO4)cc2[nH]1
The IC50 of the first is lower: 10 to 50 nM for the first, 50 to 250 nM for the second.

`Cn1ccc2cc(-c3ccc4c(c3)CN(c3ccnc5ccccc35)CCO4)cnc21` and `Cc1nc(N2CCOc3ccc(-c4ccc(N)nc4)cc3C2)c2ccccc2n1` fall in the same range of IC50: 250 to 1000 nM for the first, 250 to 1000 nM for the second.

`Nc1nc2ncc(-c3ccc4c(c3)CN(c3ncnc5ccc(Br)cc35)CCO4)cc2[nH]1` and `Nc1nc2ncc(-c3ccc4c(c3)CN(c3ncnc5cc(Cl)c(Br)cc35)CCO4)cc2[nH]1` cannot be ordered by IC50: at most 10 nM for the first, at most 10 nM for the second.

`COC(=O)Nc1nc2ncc(-c3ccc4c(c3)CN(c3ncnc5c3CC(C)(C)CC5)CCO4)cc2[nH]1` and `COC(=O)Nc1nc2ccc(-c3ccc4c(c3)CN(c3ncnc5c3CC(C)(C)CC5)CCO4)cc2[nH]1` cannot be ordered by IC50: at most 10 nM for the first, 10 to 50 nM for the second.

Compared with `Cc1nc2ccc(-c3ccc4c(c3)CN(c3ncnc5c3CCC(C)C5)CCO4)cc2[nH]1` (centres undefined), `Cc1nc2ccc(-c3ccc4c(c3)CN(c3ncnc5scc(C)c35)CCO4)cc2[nH]1` is higher in IC50: 10 to 50 nM for the first, 250 to 1000 nM for the second. The first is the more potent here.

`Cc1nc2cc(-c3ccc4c(c3)CN(c3nc(CN(C)C)nc(C)c3Br)CCO4)ccc2[nH]1` and `Cc1nc2cc(-c3ccc4c(c3)CN(c3nc(CN(C)C)nc(C)c3Cl)CCO4)ccc2[nH]1` fall in the same range of IC50: 50 to 250 nM for the first, 50 to 250 nM for the second.

First: COc1cncc(-c2ccc3c(c2)CN(c2ncnc4c2CC(C)(C)CC4)CCO3)c1
Second: CCOc1ncc(-c2ccc3c(c2)CN(c2ncnc4c2CC(C)(C)CC4)CCO3)cc1NS(C)(=O)=O
The IC50 of the first is higher: 250 to 1000 nM for the first, 50 to 250 nM for the second.

Compared with `CC1(C)CCc2ncnc(N3CCOc4ccc(-c5cnc(N)c(S(=O)(=O)NCCN)c5)cc4C3)c2C1`, `CC1(C)CCc2ncnc(N3CCOc4ccc(-c5cnc(N)c(S(=O)(=O)NC[C@H]6CCCNC6)c5)cc4C3)c2C1` is higher in IC50: 10 to 50 nM for the first, 50 to 250 nM for the second. The first is the more potent here.

First: CCNc1nc2ccc(-c3ccc4c(c3)CN(c3cc(Nc5ccccc5)ncn3)CCO4)cc2[nH]1
Second: CCNc1nc2ccc(-c3ccc4c(c3)CN(c3ncnc5c3CC(C)(C)CC5)CCO4)cc2[nH]1
The IC50 of the first is higher: 50 to 250 nM for the first, 10 to 50 nM for the second. The second is the more potent here.

`CC1(C)CCc2ncnc(N3CCOc4ccc(-c5cnc(N)c(S(=O)(=O)N6CC(N)C6)c5)cc4C3)c2C1` and `CC1(C)CCc2ncnc(N3CCOc4ccc(-c5cnc(N)c(S(=O)(=O)N6CCC(O)C6)c5)cc4C3)c2C1` (centres undefined) fall in the same range of IC50: 10 to 50 nM for the first, 10 to 50 nM for the second.

First: Cc1ncnc(N2CCOc3ccc(-c4ccc5nc(N)[nH]c5n4)cc3C2)c1Cc1ccc(F)cc1
Second: Cc1ncnc(N2CCOc3ccc(-c4ccc5nc(N)ncc5c4)cc3C2)c1Cc1ccc(F)cc1
The IC50 of the first is lower: 10 to 50 nM for the first, 250 to 1000 nM for the second. The first is the more potent here.

`CC1=CC(C)(C)Cc2c1ncnc2N1CCOc2ccc(-c3cnc(N)c(S(=O)(=O)N4CC[C@@H](N)C4)c3)cc2C1` and `Cc1nc2ncc(-c3ccc4c(c3)CN(c3ncnc(Cl)c3C)CCO4)cc2[nH]1` fall in the same range of IC50: 50 to 250 nM for the first, 50 to 250 nM for the second.

First: Cc1ncnc(N2CCOc3ccc(-c4cnc(N)nc4)cc3C2)c1Cc1ccc(F)cc1
Second: Cc1nc2ccc(-c3ccc4c(c3)CN(c3ncnc(C)c3C(C)c3cccc(F)c3)CCO4)cc2[nH]1 (centres undefined)
The IC50 of the first is higher: 50 to 250 nM for the first, at most 10 nM for the second. The second is the more potent here.

Compared with `COC1Cc2nc(CN(C)C)nc(N3CCOc4ccc(-c5ccc6scnc6c5)cc4C3)c2CC1(C)C` (centres undefined), `COCCOc1ccc(-c2ccc3c(c2)CN(c2nc(CN(C)C)nc4c2CC(C)(C)CC4)CCO3)cc1OC` is lower in IC50: 250 to 1000 nM for the first, 50 to 250 nM for the second.

`Cc1nc2cc(-c3ccc4c(c3)CN(c3nc(CNCCF)nc(C)c3C(C)C)CCO4)ccc2[nH]1` and `Cc1nc2ncc(-c3ccc4c(c3)CN(c3nc(CN(C)C)nc5ccc(F)cc35)CCO4)cc2[nH]1` fall in the same range of IC50: 10 to 50 nM for the first, 10 to 50 nM for the second.

`CCN(CC)Cc1nc2c(c(N3CCOc4ccc(-c5cnc6nc(C)[nH]c6c5)cc4C3)n1)CC(C)(C)CC2` and `Cc1nc2c(c(N3CCOc4ccc(-c5cnc6sc(N)nc6c5)cc4C3)n1)CC(C)(C)CC2` fall in the same range of IC50: 10 to 50 nM for the first, 10 to 50 nM for the second.

Compared with `Cc1nc2ccc(-c3ccc4c(c3)CN(c3ncnc5c3CCN(Cc3ccccc3)C5)CCO4)cc2[nH]1`, `COc1cc2ncnc(N3CCOc4ccc(-c5ccc6nc(C)[nH]c6c5)cc4C3)c2cc1I` is lower in IC50: 250 to 1000 nM for the first, 10 to 50 nM for the second. The second is the more potent here.
